The compounds below were run on DOHH2 cells (human B cell lymphoma cells) (assay: Inhibition of proliferation of DOHH2 cells by CTG assay). Conditions: DOHH-2, compound 10 μM, 72 hours.
Format: cell-based
Protocol: (§1) Example 8 Testing the Inhibitory Effect of Formula Compounds on the Proliferation of DOHH2 Cells (Human B Cell Lymphoma Cells) and SU-DHL-6 (Human B Cell Lymphoma Cells) by CTG Assay
(§2) The […] was used to determine the inhibitory effect of the compounds on the proliferation of DOHH2 cells (available from ATCC) and SU-DHL-6 cells (available from ATCC) in vitro. Cells were cultured and compounds were prepared referring to Example 7. The cell plating density was 1×10^4 cells/well for DOHH2 cells, and 1.5×10^4 cells/well for SU-DHL-6 cells. The culture time after the administration was 72 hours. After that an appropriate amount of CTG reagent was added, the luminescence value was measured, and the inhibition rate was calculated.

| Compound | inhibition at 10 µM [%] |
| --- | --- |
| Nc1ncnc2c1c(-c1ccc(Oc3ccccc3)cc1)nn2C1CCCN(CCOCCOCCOCCNc2cccc3c2C(=O)N(C2CCC(=O)NC2=O)C3=O)C1 (stereo not drawn) [Compound 15] | 99 |

What follows are compounds tested on SU-DHL-6 (human B cell lymphoma cells) (assay: Inhibition of proliferation of SU-DHL-6 cells by CTG assay). Conditions: compound 10 μM, 72 hours.
Format: cell-based
Protocol: as §1, §2

| Compound | inhibition at 10 µM [%] |
| --- | --- |
| Nc1ncnc2c1c(-c1ccc(Oc3ccccc3)cc1)nn2C1CCCN(CCOCCOCCOCCNc2cccc3c2C(=O)N(C2CCC(=O)NC2=O)C3=O)C1 (stereo not drawn) [Compound 15] | 94 |

Each compound was assayed against T1, Btk (Homo sapiens, UniProt Q06187) (assay: Btk protein degradation activity by Western blot in RPMI8226 cells). Conditions: compound 10 μM, 24 hours.
T1 sequence (Q06187 whole entry): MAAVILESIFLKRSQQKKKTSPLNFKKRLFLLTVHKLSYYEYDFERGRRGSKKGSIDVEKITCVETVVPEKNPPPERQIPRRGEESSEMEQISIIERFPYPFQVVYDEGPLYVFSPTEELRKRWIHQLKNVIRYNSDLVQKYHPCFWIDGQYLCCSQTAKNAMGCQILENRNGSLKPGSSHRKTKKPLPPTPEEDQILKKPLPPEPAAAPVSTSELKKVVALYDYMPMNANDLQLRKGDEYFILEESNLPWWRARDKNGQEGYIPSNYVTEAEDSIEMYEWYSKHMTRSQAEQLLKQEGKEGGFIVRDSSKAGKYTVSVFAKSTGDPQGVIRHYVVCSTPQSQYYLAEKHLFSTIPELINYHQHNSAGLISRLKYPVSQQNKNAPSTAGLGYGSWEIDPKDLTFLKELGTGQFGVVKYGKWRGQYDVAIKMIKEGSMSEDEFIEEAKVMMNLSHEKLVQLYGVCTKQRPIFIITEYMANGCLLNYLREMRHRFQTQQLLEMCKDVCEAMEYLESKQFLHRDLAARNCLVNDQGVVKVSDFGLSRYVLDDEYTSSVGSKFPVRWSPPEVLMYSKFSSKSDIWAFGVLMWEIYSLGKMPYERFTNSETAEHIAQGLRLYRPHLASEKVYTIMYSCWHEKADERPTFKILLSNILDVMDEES
Format: cell-based
Parameters: degradation activity of the compound (10 μM) on Btk protein in RPMI8226 cells; endogenous in cells; host or cells: RPMI8226; key: “−” represents no degradation activity; “+” represents a degradation rate of 10%-30%; “++” represents a degradation rate of 30%-50%; “+++” represents a degradation rate of 50%-90%; “++++” means the degradation rate is greater than 90%
Protocol: Example 6 Testing the Btk Protein Degradation Activity of Compounds by Western Blot
Cell lines: RPMI8226 Cell line was cultured in RPMI1640 medium containing 10% calf serum in a 37° C., 5% CO2, and saturated humidity incubator.
DMSO control group and compound intervention group (10 μM) were set. Cells was collected after the treatment for 24 hours, then 100 μL of pre-chilled cell lysate was added and cells were lysed on ice for 30 minutes. Total cell protein was extracted, and protein concentration was determined and quantified by […] (BCA) method. After routine gelatinization, loading, electrophoresis, then transferring to membrane and blocking, rabbit anti-human Btk (1:500) was added, and incubated at 4° C. overnight. The mixture was rinsed and then horseradish peroxidase labeled goat anti-rabbit IgG (1:5000) was added. After the rinsing it was developed by the ECL developing solution, the Bio-Rad gel imaging system was used for scanning and imaging, and the computer software was used for analysis. […] (GAPDH) was used as an internal control.
Image J software was used to analyze the gray scale of each band to calculate the Btk protein degradation rate of the compound.

| Compound | Degradation activity |
| --- | --- |
| Nc1ncnc2c1c(-c1ccc(Oc3ccccc3)cc1)nn2C1CCN(CCOCCOCCOCCOc2cccc3c2C(=O)N(C2CCC(=O)NC2=O)C3=O)CC1 (stereo not drawn) [control compound, reference compound] | − |
| Nc1ncnc2c1c(-c1ccc(Oc3ccccc3)cc1)nn2C1CCCN(C(=O)/C=C/CCOCCOCCOCCOCCNc2cccc3c2C(=O)N(C2CCC(=O)NC2=O)C3=O)C1 (stereo not drawn) [Compound 28] | +++ (“+++” represents a degradation rate of 50%-90%) |
| Nc1ncnc2c1c(-c1ccc(Oc3ccccc3)cc1)nn2C1CCCN(C(=O)c2cn(CCOCCOCCOCCOCCOc3cccc4c3C(=O)N(C3CCC(=O)NC3=O)C4=O)nn2)C1 (stereo not drawn) [Compound 40] | +++ (“+++” represents a degradation rate of 50%-90%) |
| C=C(CCOCCOCCOCCOCCNc1cccc2c1C(=O)N(C1CCC(=O)NC1=O)C2=O)C(=O)N1CCCC(n2nc(-c3ccc(Oc4ccccc4)cc3)c3c(N)ncnc32)C1 (stereo not drawn) [Compound 36] | +++ (“+++” represents a degradation rate of 50%-90%) |
| Nc1ncnc2c1c(-c1ccc(Oc3ccccc3)cc1)nn2C1CCCN(CCOCCOCCOCCNc2cccc3c2C(=O)N(C2CCC(=O)NC2=O)C3=O)C1 (stereo not drawn) [Compound 15] | ++++ (“++++” means the degradation rate is greater than 90%) |
| Nc1ncnc2c1c(-c1ccc(Oc3ccccc3)cc1)nn2C1CCCN(C(=O)c2cn(CCOCCOCCOCCNc3cccc4c3C(=O)N(C3CCC(=O)NC3=O)C4=O)nn2)C1 (stereo not drawn) [Compound 43] | ++++ (“++++” means the degradation rate is greater than 90%) |
| Nc1ncnc2c1c(-c1ccc(Oc3ccccc3)cc1)nn2C1CCCN(C(=O)c2cn(CCOCCOCCOc3cccc4c3C(=O)N(C3CCC(=O)NC3=O)C4=O)nn2)C1 (stereo not drawn) [Compound 37] | ++++ (“++++” means the degradation rate is greater than 90%) |
| Nc1ncnc2c1c(-c1ccc(Oc3ccccc3)cc1)nn2C1CCCN(C(=O)/C=C/CCCOCCOCCOCCNc2cccc3c2C(=O)N(C2CCC(=O)NC2=O)C3=O)C1 (stereo not drawn) [Compound 25] | ++++ (“++++” means the degradation rate is greater than 90%) |
| Nc1ncnc2c1c(-c1ccc(Oc3ccccc3)cc1)nn2C1CCCN(C(=O)/C=C/CCOCCOCCOCCOc2cccc3c2C(=O)N(C2CCC(=O)NC2=O)C3=O)C1 (stereo not drawn) [Compound 18] | +++ (“+++” represents a degradation rate of 50%-90%) |
| Nc1ncnc2c1c(-c1ccc(Oc3ccccc3)cc1)nn2C1CCCN(C(=O)/C=C/CCCCOCCOCCOCCOc2cccc3c2C(=O)N(C2CCC(=O)NC2=O)C3=O)C1 (stereo not drawn) [Compound 20] | +++ (“+++” represents a degradation rate of 50%-90%) |
| Nc1ncnc2c1c(-c1ccc(Oc3ccccc3)cc1)nn2C1CCCN(C(=O)/C=C/CCOCCOCCOc2cccc3c2C(=O)N(C2CCC(=O)NC2=O)C3=O)C1 (stereo not drawn) [Compound 17] | +++ (“+++” represents a degradation rate of 50%-90%) |
| Nc1ncnc2c1c(-c1ccc(Oc3ccccc3)cc1)nn2C1CCCN(C(=O)/C=C/COCCOCCOCCOCCNc2cccc3c2C(=O)N(C2CCC(=O)NC2=O)C3=O)C1 (stereo not drawn) [Compound 27] | ++++ (“++++” means the degradation rate is greater than 90%) |
| C=C(CCCOCCOCCNc1cccc2c1C(=O)N(C1CCC(=O)NC1=O)C2=O)C(=O)N1CCCC(n2nc(-c3ccc(Oc4ccccc4)cc3)c3c(N)ncnc32)C1 (stereo not drawn) [Compound 33] | ++++ (“++++” means the degradation rate is greater than 90%) |
| Nc1ncnc2c1c(-c1ccc(Oc3ccccc3)cc1)nn2C1CCCN(C(=O)c2cn(CCOCCOCCOCCOCCNc3cccc4c3C(=O)N(C3CCC(=O)NC3=O)C4=O)nn2)C1 (stereo not drawn) [Compound 44] | +++ (“+++” represents a degradation rate of 50%-90%) |
| C=C(CCOCCOCCOCCOCCOc1cccc2c1C(=O)N(C1CCC(=O)NC1=O)C2=O)C(=O)N1CCCC(n2nc(-c3ccc(Oc4ccccc4)cc3)c3c(N)ncnc32)C1 (stereo not drawn) [Compound 32] | +++ (“+++” represents a degradation rate of 50%-90%) |
| Nc1ncnc2c1c(-c1ccc(Oc3ccccc3)cc1)nn2C1CCCN(C(=O)/C=C/CCOCCOCCOCCOCCOc2cccc3c2C(=O)N(C2CCC(=O)NC2=O)C3=O)C1 (stereo not drawn) [Compound 22] | +++ (“+++” represents a degradation rate of 50%-90%) |
| C=C(CCOCCOCCOCCOc1cccc2c1C(=O)N(C1CCC(=O)NC1=O)C2=O)C(=O)N1CCCC(n2nc(-c3ccc(Oc4ccccc4)cc3)c3c(N)ncnc32)C1 (stereo not drawn) [Compound 31] | ++++ (“++++” means the degradation rate is greater than 90%) |
| C=C(CCOCCOCCOc1cccc2c1C(=O)N(C1CCC(=O)NC1=O)C2=O)C(=O)N1CCCC(n2nc(-c3ccc(Oc4ccccc4)cc3)c3c(N)ncnc32)C1 (stereo not drawn) [Compound 30] | ++++ (“++++” means the degradation rate is greater than 90%) |
| Nc1ncnc2c1c(-c1ccc(Oc3ccccc3)cc1)nn2C1CCCN(C(=O)/C=C/CCOCCOCCOCCNc2cccc3c2C(=O)N(C2CCC(=O)NC2=O)C3=O)C1 (stereo not drawn) [Compound 24] | ++++ (“++++” means the degradation rate is greater than 90%) |
| Nc1ncnc2c1c(-c1ccc(Oc3ccccc3)cc1)nn2C1CCCN(C(=O)/C=C/CCCCOCCOCCOCCNc2cccc3c2C(=O)N(C2CCC(=O)NC2=O)C3=O)C1 (stereo not drawn) [Compound 26] | ++++ (“++++” means the degradation rate is greater than 90%) |
| Nc1ncnc2c1c(-c1ccc(Oc3ccccc3)cc1)nn2C1CCCN(C(=O)/C=C/COCCOCCOCCOCCOc2cccc3c2C(=O)N(C2CCC(=O)NC2=O)C3=O)C1 (stereo not drawn) [Compound 21] | +++ (“+++” represents a degradation rate of 50%-90%) |
| Nc1ncnc2c1c(-c1ccc(Oc3ccccc3)cc1)nn2C1CCCN(C(=O)/C=C/CCCOCCOCCOCCOc2cccc3c2C(=O)N(C2CCC(=O)NC2=O)C3=O)C1 (stereo not drawn) [Compound 19] | +++ (“+++” represents a degradation rate of 50%-90%) |
| C=C(CCOCCOCCOCCNc1cccc2c1C(=O)N(C1CCC(=O)NC1=O)C2=O)C(=O)N1CCCC(n2nc(-c3ccc(Oc4ccccc4)cc3)c3c(N)ncnc32)C1 (stereo not drawn) [Compound 35] | ++++ (“++++” means the degradation rate is greater than 90%) |
| C=C(CCOCCOCCNc1cccc2c1C(=O)N(C1CCC(=O)NC1=O)C2=O)C(=O)N1CCCC(n2nc(-c3ccc(Oc4ccccc4)cc3)c3c(N)ncnc32)C1 (stereo not drawn) [Compound 34] | ++++ (“++++” means the degradation rate is greater than 90%) |
| C=C(CCCOCCOCCOc1cccc2c1C(=O)N(C1CCC(=O)NC1=O)C2=O)C(=O)N1CCCC(n2nc(-c3ccc(Oc4ccccc4)cc3)c3c(N)ncnc32)C1 (stereo not drawn) [Compound 29] | ++++ (“++++” means the degradation rate is greater than 90%) |
| Nc1ncnc2c1c(-c1ccc(Oc3ccccc3)cc1)nn2C1CCCN(C(=O)c2cn(CCOCCOCCOCCOc3cccc4c3C(=O)N(C3CCC(=O)NC3=O)C4=O)nn2)C1 (stereo not drawn) [Compound 39] | ++++ (“++++” means the degradation rate is greater than 90%) |
| Nc1ncnc2c1c(-c1ccc(Oc3ccccc3)cc1)nn2C1CCCN(C(=O)/C=C/CCOCCOCCNc2cccc3c2C(=O)N(C2CCC(=O)NC2=O)C3=O)C1 (stereo not drawn) [Compound 23] | ++++ (“++++” means the degradation rate is greater than 90%) |

The compounds below were run against T1, Btk (assay: Inhibition activity of compounds on Btk by Caliper assay). Conditions: compound 100 nM, Btk kinase.
Format: biochemical
Protocol: Example 5 Testing the Inhibition Activity of Compounds on Btk by Caliper Assay
The experimental steps were as follows:
Preparation of 1× kinase reaction buffer (50 mM HEPES, PH 7.5; 0.0015% Brij-35) and kinase reaction termination solution (100 mM HEPES, PH 7.5; 0.0015% Brij-35; 0.2% Coating Reagent; 50 mM EDTA);
Preparation of experimental samples: 100 μL of 5 μM sample solution (dissolved in 100% DMSO) was added to a 96-well plate to obtain a 50× sample solution. As a control, two wells were set containing only 100 μL of 100% DMSO on the same plate. One was served as a control without samples and the other was served as a control without enzymes. 10 μL of sample and 90 μL of 1× kinase reaction buffer were added to a 96-well plate as a transfer plate. The transfer plate was shaken for 10 minutes.
Preparation of the test plate: taking 5 μL each of the prepared samples in the 96-well transfer plate into a 384-well plate.
Kinase reaction: to 5 μL of 5× compound solution (dissolved in DMSO, diluted 10 times with water) was added 10 μL of 2.5× Btk kinase solution (kinase was diluted with 1× kinase reaction buffer), and incubated at room temperature for 10 min, then 10 μL of 2.5× substrate peptide solution (FAM-labeled peptide and ATP were diluted with 1× kinase reaction buffer) was added.
Termination of the kinase reaction: 25 μL of kinase termination solution was added after being reacted at 28° C. for a period of time.
The fluorescence (F) was tested on a Caliper and data was collected.
The inhibition rate of kinase activity was calculated: the percent inhibition rate of kinase activity=(FDMSO control−Fsample)/(FDMSO control−Fnegative control)×100, with DMSO as the solution control, and no kinase as the negative control.

| inhibition at 0.1 µM [%] | Compound |
| --- | --- |
| 98 | Nc1ncnc2c1c(-c1ccc(Oc3ccccc3)cc1)nn2C1CCCN(CCOCCOCCOCCNc2cccc3c2C(=O)N(C2CCC(=O)NC2=O)C3=O)C1 (stereo not drawn) [Compound 15] |

— patent US11155561B2, “Substituted glutarimides as Btk inhibitors” (SHANGHAI MEIZER PHARMACEUTICALS CO., LTD., priority 2017, dated 2021)
